Data on 26 compounds can be found in US20100190747A1, “Fused ring compound and use thereof” (priority 2009, published 2010).

The experiment addresses T1, delta-5-desaturase (Rattus norvegicus, UniProt Q920R3).
T1 construct: the microsomal fraction of a rat river (10 μl), which had been diluted to 3 mg/ml; from tissue; host or cells: rat liver microsomal fraction
The experiment is described as follows: Inhibitory activity on delta-5-desaturase (rat liver microsomal fraction, 14C-eicosatrienoic acid, TLC). It counts as biochemical. To be noted: test compound at 10 μM, room temperature, 120 minutes. How it is done: An inhibitory activity of a test compound on delta-5-desaturase was measured according to the method described herein below. To a DMSO solution of the test compound which had been previously prepared, secondary dilution was carried out by using a buffer (300 mM NaH2PO4 [pH 7.4], 450 mM KCl, 30 mM NaF, 9 mM MgCl2, 4.5 mM glutathione [reduced form], 0.3% BSA [fatty acid free, SIGMA]). This diluent compound (10 μl) was added in a 96-well deep well block made of polypropylene, and then the microsomal fraction of a rat river (10 μl), which had been diluted to 3 mg/ml by using a microsome buffer (10 mM Tris-HCl [pH 7.4], 1 mM EDTA, and 250 mM sucrose), was added thereto. The enzyme reaction was initiated by adding 10 μl of 9 mM NADH, 9 mM ATP, 0.9 mM CoA and 10 μCi/ml (8E,11E,14E)-(1-^14C)eicosa-8,11,14-trienoic acid (PerkinElmer Inc.). The enzyme reaction was carried out at room temperature for 120 minutes, and then terminated by addition of 2.5 M NaOH (10 μl). Upon the completion of the reaction, the plate was covered with plate seal and incubated overnight in a dry heater of which temperature was set at 55° C. for saponification. Based on Bligh & Dyer method which had been described in a known document, Canadian Journal of Biochemistry and Physiology (Can. J. Biochem. Physiol.), Vol. 37, page 911, 1959), the solvent extraction of fatty acid was carried out by adding 200 μl of formic acid:methanol:chloroform (1:6:3), keeping the mixture as a single layer for a while, stirring the mixture to a sufficient level, and adding 120 μl of pure water to separate the mixture into two layers. 10 μl of the bottom chloroform layer was spotted on a reverse phase TLC plate (RP-18, 1154230001, Merck Japan, Ltd.) and then developed with acetonitrile:pure water:acetic acid (95:4.5:0.5). The TLC plate obtained after drying was transferred to an Imaging Plate (Fuji Photo Film Co., Ltd.) for more than 5 hours. Detection was carried out by using BAS-5000 (Fuji Photo Film Co., Ltd.). Numerization of thus-obtained image was carried out by using Multi Gauge Ver 2.3 (Fuji Photo Film Co., Ltd.) and an inhibitory ratio (%) of the test compound at 10 μM on delta-5-desaturase was obtained.
(Microsomes from liver hold many membrane-bound enzymes, among them those of drug oxidation.)

T1 sequence (Q920R3 whole entry): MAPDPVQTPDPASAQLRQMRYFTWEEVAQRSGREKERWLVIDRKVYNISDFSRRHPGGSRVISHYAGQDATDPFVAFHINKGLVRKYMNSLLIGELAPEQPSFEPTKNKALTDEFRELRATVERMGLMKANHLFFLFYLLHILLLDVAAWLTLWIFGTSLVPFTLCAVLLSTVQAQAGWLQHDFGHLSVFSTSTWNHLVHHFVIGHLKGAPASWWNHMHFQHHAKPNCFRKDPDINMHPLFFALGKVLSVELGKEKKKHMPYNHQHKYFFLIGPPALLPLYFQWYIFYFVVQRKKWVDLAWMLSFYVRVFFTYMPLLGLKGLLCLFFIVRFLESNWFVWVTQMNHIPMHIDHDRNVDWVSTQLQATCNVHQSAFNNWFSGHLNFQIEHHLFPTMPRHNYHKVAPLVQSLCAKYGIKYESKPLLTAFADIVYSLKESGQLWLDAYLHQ

The term inhibition denotes the change of the read-out against control, counted positive when it falls. In the case of `CC(C)OCCCSc1nc2cc[nH]c2c(=O)n1-c1ccc(OCC(F)(F)F)cc1` [Example 137, 2-{[3-(1-Methylethoxy)propyl]sulfanyl}-3-[4-(2,2,2-trifluoroethoxy)phenyl]-3,5-dihydro-4H-pyrrolo[3,2-d]pyrimidin-4-one], the inhibition at 10 µM worked out at 99%.

As for `CCOCCCSc1nc2cc[nH]c2c(=O)n1-c1ccc(OCC2CC2)cc1` [Example 139, 3-[4-(Cyclopropylmethoxy)phenyl]-2-[(3-ethoxypropyl)sulfanyl]-3,5-dihydro-4H-pyrrolo[3,2-d]pyrimidin-4-one], the inhibition at 10 µM came out at 101%.

For the compound `COCCOCCCSc1nc2cc[nH]c2c(=O)n1-c1ccc(OCC2CC2)cc1` [Example 141, 3-[4-(Cyclopropylmethoxy)phenyl]-2-{[3-(2-methoxyethoxy)propyl]sulfanyl}-3,5-dihydro-4H-pyrrolo[3,2-d]pyrimidin-4-one], the inhibition at 10 µM was determined as 100%. Consider `CCOCCOCCSc1nc2cc[nH]c2c(=O)n1-c1ccc(OCC2CC2)cc1` [Example 142, 3-[4-(Cyclopropylmethoxy)phenyl]-2-{[2-(2-ethoxyethoxy)ethyl]sulfanyl}-3,5-dihydro-4H-pyrrolo[3,2-d]pyrimidin-4-one], for which the inhibition at 10 µM was determined as 98%. The result for `CCOCCSc1nc2cc[nH]c2c(=O)n1-c1ccc(OCC2CC2)cc1` [Example 143, 3-[4-(Cyclopropylmethoxy)phenyl]-2-[(2-ethoxyethyl)sulfanyl]-3,5-dihydro-4H-pyrrolo[3,2-d]pyrimidin-4-one] reads 101%; that for `O=c1c2[nH]ccc2nc(SCCO)n1-c1ccc(OCC2CC2)cc1` [Example 144, 3-[4-(Cyclopropylmethoxy)phenyl]-2-[(2-hydroxyethyl)sulfanyl]-3,5-dihydro-4H-pyrrolo[3,2-d]pyrimidin-4-one], 101%. The result for `O=c1c2[nH]ccc2nc(SCCOC2CCOCC2)n1-c1ccc(OCC2CC2)cc1` [Example 147, 3-[4-(Cyclopropylmethoxy)phenyl]-2-{[2-(tetrahydro-2H-pyran-4-yloxy)ethyl]sulfanyl}-3,5-dihydro-4H-pyrrolo[3,2-d]pyrimidin-4-one] reads 98%; that for `CCSc1nc2cc[nH]c2c(=O)n1-c1ccc(OCC2CC2)cc1` [Example 153, 3-[4-(Cyclopropylmethoxy)phenyl]-2-(ethylsulfanyl)-3,5-dihydro-4H-pyrrolo[3,2-d]pyrimidin-4-one], 98%. Next, `CS(=O)(=O)CCCSc1nc2cc[nH]c2c(=O)n1-c1ccc(OCC2CC2)cc1` [Example 154, 3-[4-(Cyclopropylmethoxy)phenyl]-2-{[3-(methylsulfonyl)propyl]sulfanyl}-3,5-dihydro-4H-pyrrolo[3,2-d]pyrimidin-4-one]: 99%. In the case of `O=c1c2[nH]ccc2nc(SCCC2(O)CCOCC2)n1-c1ccc(OCC2CC2)cc1` [Example 155, 3-[4-(Cyclopropylmethoxy)phenyl]-2-{[2-(4-hydroxytetrahydro-2H-pyran-4-yl)ethyl]sulfanyl}-3,5-dihydro-4H-pyrrolo[3,2-d]pyrimidin-4-one], the inhibition at 10 µM was determined as 99%. `O=c1c2[nH]ccc2nc(SCCCOC2CCOCC2)n1-c1ccc(OCC2CC2)cc1` [Example 157, 3-[4-(Cyclopropylmethoxy)phenyl]-2-{[3-(tetrahydro-2H-pyran-4-yloxy)propyl]sulfanyl}-3,5-dihydro-4H-pyrrolo[3,2-d]pyrimidin-4-one]: the inhibition at 10 µM was 101%. The result for `O=c1c2[nH]ccc2nc(SCCCOC2CCOCC2)n1-c1ccc(OCC(F)(F)F)cc1` [Example 158, 2-{[3-(Tetrahydro-2H-pyran-4-yloxy)propyl]sulfanyl}-3-[4-(2,2,2-trifluoroethoxy)phenyl]-3,5-dihydro-4H-pyrrolo[3,2-d]pyrimidin-4-one] reads 99%. For `O=c1c2[nH]ccc2nc(SCCOC2CCOCC2)n1-c1ccc(OCC(F)(F)F)cc1` [Example 159, 2-{[2-(Tetrahydro-2H-pyran-4-yloxy)ethyl]sulfanyl}-3-[4-(2,2,2-trifluoroethoxy)phenyl]-3,5-dihydro-4H-pyrrolo[3,2-d]pyrimidin-4-one], the inhibition at 10 µM is 99%. On to `CCSc1nc2cc[nH]c2c(=O)n1-c1ccc(OCC2CC2)c(Cl)c1` [Example 162, 3-[3-Chloro-4-(cyclopropylmethoxy)phenyl]-2-(ethylsulfanyl)-3,5-dihydro-4H-pyrrolo[3,2-d]pyrimidin-4-one], for which the inhibition at 10 µM was found to be 103%. On to `CCOCCOCCSc1nc2cc[nH]c2c(=O)n1-c1ccc(OCC2CC2)c(Cl)c1` [Example 163, 3-[3-Chloro-4-(cyclopropylmethoxy)phenyl]-2-{[2-(2-ethoxyethoxy)ethyl]sulfanyl}-3,5-dihydro-4H-pyrrolo[3,2-d]pyrimidin-4-one], for which the inhibition at 10 µM was determined as 99%. Regarding `CC(C)S(=O)(=O)CCCSc1nc2cc[nH]c2c(=O)n1-c1ccc(OCC2CC2)cc1` [Example 164, 3-[4-(Cyclopropylmethoxy)phenyl]-2-({3-[(1-methylethyl)sulfonyl]propyl}sulfanyl)-3,5-dihydro-4H-pyrrolo[3,2-d]pyrimidin-4-one], the inhibition at 10 µM turned out to be 101%. The result for `O=c1c2[nH]ccc2nc(SCCCS(=O)(=O)CC2CC2)n1-c1ccc(OCC(F)(F)F)cc1` [Example 165, 2-({3-[(Cyclopropylmethyl)sulfonyl]propyl}sulfanyl)-3-[4-(2,2,2-trifluoroethoxy)phenyl]-3,5-dihydro-4H-pyrrolo[3,2-d]pyrimidin-4-one] reads 99%; that for `O=c1c2[nH]ccc2nc(SCCCS(=O)(=O)CC2CC2)n1-c1ccc(OCC2CC2)cc1` [Example 166, 3-[4-(Cyclopropylmethoxy)phenyl]-2-({3-[(cyclopropylmethyl)sulfonyl]propyl}sulfanyl)-3,5-dihydro-4H-pyrrolo[3,2-d]pyrimidin-4-one], 101%; that for `N#CCCNC(=O)CCCSc1nc2c(C3CC3)c[nH]c2c(=O)n1-c1ccc(OCC(F)(F)F)cc1` [Example 170, N-(2-cyanoethyl)-4-({7-cyclopropyl-4-oxo-3-[4-(2,2,2-trifluoroethoxy)phenyl]-4,5-dihydro-3H-pyrrolo[3,2-d]pyrimidin-2-yl}sulfanyl)butanamide], 101%. Next, `CCc1c[nH]c2c(=O)n(-c3ccc(OCC(F)(F)F)cc3)c(SCCCC(=O)NCCC#N)nc12` [Example 171, N-(2-cyanoethyl)-4-({7-ethyl-4-oxo-3-[4-(2,2,2-trifluoroethoxy)phenyl]-4,5-dihydro-3H-pyrrolo[3,2-d]pyrimidin-2-yl}sulfanyl)butanamide]: 98%. Next, `Cc1c[nH]c2c(=O)n(-c3ccc(OCC(F)(F)F)cc3)c(SCCCC(=O)NCCC#N)nc12` [Example 172, N-(2-cyanoethyl)-4-({7-methyl-4-oxo-3-[4-(2,2,2-trifluoroethoxy)phenyl]-4,5-dihydro-3H-pyrrolo[3,2-d]pyrimidin-2-yl}sulfanyl)butanamide]: 99%; `CCOc1ccc(-n2c(SCC(=O)NCCC#N)nc3[nH]ccc3c2=O)cc1` [Example 173, N-(2-cyanoethyl)-2-{[3-(4-ethoxyphenyl)-4-oxo-4,7-dihydro-3H-pyrrolo[2,3-d]pyrimidin-2-yl]sulfanyl}acetamide]: 97%.

On to `CC(C)(C)COc1ccc(-n2c(SCCCC(=O)NCCC#N)nc3[nH]ccc3c2=O)cc1` [Example 174, N-(2-cyanoethyl)-4-({3-[4-(2,2-dimethylpropoxy)phenyl]-4-oxo-4,7-dihydro-3H-pyrrolo[2,3-d]pyrimidin-2-yl}sulfanyl)butanamide], for which the inhibition at 10 µM was found to be 100%. On to `CC(C)(C)CCOc1ccc(-n2c(SCCCC(=O)NCCC#N)nc3[nH]ccc3c2=O)cc1` [Example 176, N-(2-cyanoethyl)-4-({3-[4-(3,3-dimethylbutoxy)phenyl]-4-oxo-4,7-dihydro-3H-pyrrolo[2,3-d]pyrimidin-2-yl}sulfanyl)butanamide], for which the inhibition at 10 µM was 98%.

With `N#CCCNC(=O)CCCSc1nc2[nH]ccc2c(=O)n1-c1ccc(OCC2CC2(F)F)cc1` (centres unmarked) [Example 177, N-(2-cyanoethyl)-4-[(3-{4-[(2,2-difluorocyclopropyl)methoxy]phenyl}-4-oxo-4,7-dihydro-3H-pyrrolo[2,3-d]pyrimidin-2-yl)sulfanyl]butanamide], the inhibition at 10 µM was 100%.

Take `N#CCCNC(=O)CCCSc1nc2[nH]ccc2c(=O)n1-c1ccc(OCC2CCC2)cc1` [Example 183, N-(2-cyanoethyl)-4-({3-[4-(cyclobutylmethoxy)phenyl]-4-oxo-4,7-dihydro-3H-pyrrolo[2,3-d]pyrimidin-2-yl}sulfanyl)butanamide]: the inhibition at 10 µM came out at 99%.
